Measurements as given in PMC11538602, “Substrate binding and catalytic mechanism of UDP-α-D-galactofuranose: β-galactofuranoside β-(1→5)-galactofuranosyltransferase GfsA” (PNAS Nexus, 2024).

Key:
[1] = target: T1, GfsA (Aspergillus fumigatus, UniProt B0YDN6); assay: X-ray crystal structure, […] A; assay type: binding; conditions: crystal with UDP and Mn2+ soaked with 50 mM pNP-Galf, pNP group not resolved, only Galf modelled; acceptor site, D335 and D360
T1 construct: gene AFUB_096220; soluble catalytic domain, residues 43-537 without transmembrane segment; N-terminal 6xHis-tag (pET15b); E. coli Rosetta-gami B (DE3); 58 kDa; homodimer (120 kDa by gel filtration); GT31

[2] = target: GfsA (UDP-α-D-galactofuranose: β-galactofuranoside β-(1→5)-galactofuranosyltransferase) from Aspergillus fumigatus, soluble catalytic domain, residues 43–537 (Aspergillus fumigatus); assay: SEC; gel filtration chromatography of GfsA purified with Ni-agarose; broad single peak, estimated 120 kDa against 58 kDa for the monomer

| stoichiometry N [2] | Compound | X-ray crystal structure, 2.37 A [1] |
| --- | --- | --- |
| – | OC[C@@H](O)[C@@H]1O[C@@H](O)[C@H](O)[C@H]1O [Galf] | Galf, was present within the depression and hydrogen bonded with D335 and D360 |
| 2 | GfsA (UDP-α-D-galactofuranose: β-galactofuranoside β-(1→5)-galactofuranosyltransferase) from Aspergillus fumigatus, soluble catalytic domain, residues 43–537 (enzyme) | – |
